Reference: PMC4763718 (MedChemComm, 2015)

These compounds were tested on J6/JFH(p7-Rluc2A) HCV (assay: not given).
Type: cell-based, hepatitis C virus

| Structure (SMILES) | effect on HCV replication (in words) |
| --- | --- |
| CC(C)Oc1snc2cc(-c3ccsc3)cnc12 [Compound 8j] | minimal to no effect |

What follows are compounds tested against T1, cyclin G associated kinase (GAK) (Homo sapiens, UniProt O14976) (assay: KINOMEscan competition binding assay).
T1 sequence (O14976 1-1311): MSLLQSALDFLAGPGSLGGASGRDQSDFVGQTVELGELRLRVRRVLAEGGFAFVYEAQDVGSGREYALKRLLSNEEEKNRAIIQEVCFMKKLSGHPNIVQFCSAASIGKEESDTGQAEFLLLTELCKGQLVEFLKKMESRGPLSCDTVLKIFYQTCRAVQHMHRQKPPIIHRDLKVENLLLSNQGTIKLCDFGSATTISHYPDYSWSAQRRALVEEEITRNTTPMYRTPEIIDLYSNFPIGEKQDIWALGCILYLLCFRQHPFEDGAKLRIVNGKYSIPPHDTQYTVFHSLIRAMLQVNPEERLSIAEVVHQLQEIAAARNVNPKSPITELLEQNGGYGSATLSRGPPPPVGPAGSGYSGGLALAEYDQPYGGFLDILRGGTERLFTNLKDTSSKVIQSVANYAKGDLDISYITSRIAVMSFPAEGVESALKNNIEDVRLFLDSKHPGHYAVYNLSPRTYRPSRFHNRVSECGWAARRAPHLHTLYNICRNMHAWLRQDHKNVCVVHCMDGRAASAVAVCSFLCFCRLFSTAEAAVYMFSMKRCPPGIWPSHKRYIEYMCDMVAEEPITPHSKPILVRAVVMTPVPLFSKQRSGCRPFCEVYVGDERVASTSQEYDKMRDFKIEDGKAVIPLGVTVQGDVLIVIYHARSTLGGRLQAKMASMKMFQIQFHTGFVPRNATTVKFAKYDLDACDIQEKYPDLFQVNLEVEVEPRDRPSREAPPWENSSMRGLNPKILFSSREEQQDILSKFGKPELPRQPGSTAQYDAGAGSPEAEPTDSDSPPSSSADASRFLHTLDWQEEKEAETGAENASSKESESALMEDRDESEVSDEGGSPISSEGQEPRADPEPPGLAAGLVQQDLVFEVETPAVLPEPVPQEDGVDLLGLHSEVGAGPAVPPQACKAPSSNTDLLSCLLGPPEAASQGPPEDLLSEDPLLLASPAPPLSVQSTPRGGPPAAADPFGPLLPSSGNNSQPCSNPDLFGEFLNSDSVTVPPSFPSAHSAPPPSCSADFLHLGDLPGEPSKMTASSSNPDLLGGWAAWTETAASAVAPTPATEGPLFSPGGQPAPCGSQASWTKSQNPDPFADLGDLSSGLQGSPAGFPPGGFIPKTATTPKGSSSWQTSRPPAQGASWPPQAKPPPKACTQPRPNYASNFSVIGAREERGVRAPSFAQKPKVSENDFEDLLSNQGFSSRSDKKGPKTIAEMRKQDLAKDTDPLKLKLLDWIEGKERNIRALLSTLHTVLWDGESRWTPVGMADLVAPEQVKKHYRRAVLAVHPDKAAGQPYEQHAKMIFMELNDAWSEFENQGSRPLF

| Structure (SMILES) | GAK affinity (in words) |
| --- | --- |
| COc1ccc(-c2cnc3c(NC(=O)C4CC=CC4)snc3c2)cc1OC [Compound 5g] | reduced the affinity to GAK |
| COc1ccc(-c2cnc3c(NC(=O)C4CCCCCC4)snc3c2)cc1OC [Compound 5h] | reduced the affinity to GAK |
| COc1ccc(-c2cnc3c(NC(=O)C4CCOCC4)snc3c2)cc1OC [Compound 5i] | reduced the affinity to GAK |
| COc1ccc(-c2cnc3c(N4CCN(C(C)C)CC4)snc3c2)cc1OC [Compound 8l] | did not lead to any improvement in GAK affinity |
| CCCCN1CCN(c2snc3cc(-c4ccc(OC)c(OC)c4)cnc23)CC1 [Compound 8m] | did not lead to any improvement in GAK affinity |
| COc1ccc(-c2cnc3c(N4CCN(c5ccncc5)CC4)snc3c2)cc1OC [Compound 8n] | did not lead to any improvement in GAK affinity |

Continued, values first:

| GAK affinity (in words) | Structure (SMILES) |
| --- | --- |
| completely abolished GAK affinity | CCCCCOc1snc2cc(-c3ccc(OC)c(OC)c3)cnc12 [Compound 8e] |
| inactive | COc1ccc(-c2cnc3c(N4CCN(C(=O)c5ccccc5)CC4)snc3c2)cc1OC [Compound 8q] |
